Results from patent US10532040B2, “Methods of treating cancer with herbacetin” (REGENTS OF THE UNIVERSITY OF MINNESOTA, priority 2011, dated 2020).

Molecular target: T1, ODC (Homo sapiens, UniProt P11926)
T1 sequence (P11926 1-461): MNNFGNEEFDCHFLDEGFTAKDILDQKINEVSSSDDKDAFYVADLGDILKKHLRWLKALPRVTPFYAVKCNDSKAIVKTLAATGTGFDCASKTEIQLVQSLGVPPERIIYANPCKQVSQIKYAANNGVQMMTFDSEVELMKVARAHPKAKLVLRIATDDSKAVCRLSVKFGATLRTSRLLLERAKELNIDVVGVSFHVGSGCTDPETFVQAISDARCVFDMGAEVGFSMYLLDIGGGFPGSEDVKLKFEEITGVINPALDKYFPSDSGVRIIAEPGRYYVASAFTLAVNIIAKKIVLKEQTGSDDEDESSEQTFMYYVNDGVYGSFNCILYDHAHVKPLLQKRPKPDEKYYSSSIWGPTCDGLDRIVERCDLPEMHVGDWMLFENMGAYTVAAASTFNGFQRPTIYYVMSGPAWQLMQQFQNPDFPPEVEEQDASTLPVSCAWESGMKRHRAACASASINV
Assay: ODC enzyme assay with recombinant ODC protein
Assay type: biochemical
Settings: in vitro
Method: FIGS. 5A-5E. The effect of herbacetin on ODC activity was assessed in (a) DLD-1 and (b) HCT116 colon cancer cells. Cell lysates were incubated for 15 min with reaction buffer and different doses of herbacetin or DFMO and then incubated at 37° C. for 1 h. Herbacetin (c) and kaempferol (d) were modeled as allosteric inhibitors with the ODC crystal structure. (e) The effect of herbacetin or kaempferol on ODC activity was assessed using a human ODC recombinant protein. Each reaction was incubated at 37° C. for 1 h and ODC activity was measured as the release of CO2 from L-[1-C^14] ornithine. Data are represented as means±S.D. of triplicate values. The asterisk (*) indicates a significant difference (p<0.05) between herbacetin-treated samples compared to untreated or kaempferol-treated samples.
ODC activity was measured as the release of CO2 from L-[1-C^14] ornithine as previously described ([…]).

**Q.** How did the “ODC activity (release of CO2 from L-[1-C^14] ornithine)” value turn out when `O=c1c(O)c(-c2ccc(O)cc2)oc2cc(O)cc(O)c12` [kaempferol, reference compound] was run?
**A.** little effect
